# Patent publication US20210154186A1, “COMPOSITIONS AND METHODS FOR INHIBITING DIHYDROOROTATE DEHYDROGENASE” (Clear Creek Bio, Inc., priority 2018, published 2021)
# Like-named read-outs stand apart in the source and are kept apart here.
# Columns and labels:
# [1] = Adverse events observed in subjects receiving brequinar intravenously once weekly; type: in vivo, human; conditions: 209 subjects, i.v. once week, median dose 1200 mg/m^2
# [2] = mouse model of AML, daily administration of high doses; cited from earlier work
# DHODH [3] = target: DHODH (Homo sapiens, UniProt Q02127); conditions: for DHO plasma level threshold achieved: after a dose
# DHODH [4] = target: DHODH (Mus musculus, UniProt O35435); experiment: DHO remaining in plasma of mice after brequinar 50 mg/kg (FIG. 6); conditions: at about 84 hours
# [5] = test system: acute myeloid leukemia (AML); experiment: Clinical response of patients with AML to brequinar-containing composition; type: in vivo, human
# [6] = 650 mg/m^2 brequinar (days 1, 8 and 15) with 75 mg/m^2 cisplatin (day 1); cited from earlier work
# [7] = test system: leukemia-initiating cell activity; conditions: mouse models of AML; only when elevated plasma levels are maintained for extended periods; cited from earlier work
# solid malignancies = conditions: 43 patients; patient with papillary carcinoma of the thyroid; cited from earlier work
# [8] = Example 9, first patient, threshold 1,600 ng/mL
# [9] = Example 10, second patient, threshold 2,900 ng/mL
# [10] = Example 11, threshold 133 ng/mL
# DHODH (Homo sapiens, UniProt Q02127), sequence (Q02127 whole entry): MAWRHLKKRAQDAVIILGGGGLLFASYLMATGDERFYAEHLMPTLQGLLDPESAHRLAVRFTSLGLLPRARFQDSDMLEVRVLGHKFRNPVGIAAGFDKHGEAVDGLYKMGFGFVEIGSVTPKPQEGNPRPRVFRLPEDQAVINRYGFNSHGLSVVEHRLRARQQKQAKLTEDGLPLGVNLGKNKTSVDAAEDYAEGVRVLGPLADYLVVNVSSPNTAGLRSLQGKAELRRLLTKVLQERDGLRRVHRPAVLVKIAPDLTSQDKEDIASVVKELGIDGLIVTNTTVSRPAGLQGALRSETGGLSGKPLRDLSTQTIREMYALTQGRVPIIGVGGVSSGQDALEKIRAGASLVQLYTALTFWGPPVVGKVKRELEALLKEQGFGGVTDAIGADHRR
# DHODH (Mus musculus, UniProt O35435), sequence (O35435 whole entry): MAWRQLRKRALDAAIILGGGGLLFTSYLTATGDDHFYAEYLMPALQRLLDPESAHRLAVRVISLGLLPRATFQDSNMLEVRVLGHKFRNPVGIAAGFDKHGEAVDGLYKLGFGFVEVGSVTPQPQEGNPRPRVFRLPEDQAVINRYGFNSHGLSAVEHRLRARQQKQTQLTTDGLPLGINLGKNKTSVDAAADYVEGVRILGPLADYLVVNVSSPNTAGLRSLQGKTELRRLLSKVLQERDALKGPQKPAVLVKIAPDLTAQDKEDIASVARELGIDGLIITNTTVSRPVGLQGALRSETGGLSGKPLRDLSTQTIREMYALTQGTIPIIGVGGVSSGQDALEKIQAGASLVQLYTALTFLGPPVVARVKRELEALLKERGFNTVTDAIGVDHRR
smiles,measurement,setting,value
"Cc1c(-c2ccc(-c3ccccc3F)cc2)nc2ccc(F)cc2c1C(=O)O [Brequinar, 6-fluoro-2-(2′-fluoro-1,1′ biphenyl-4-yl)-3-methyl-4-quinoline carboxylic acid]","All Body Systems: No. of Patients Experiencing the AE, 5y Max Grade 1",[1],36
same,"All Body Systems: No. of Patients Experiencing the AE, 5y Max Grade 2",[1],76
same,"All Body Systems: No. of Patients Experiencing the AE, 5y Max Grade 3",[1],55
same,"All Body Systems: No. of Patients Experiencing the AE, 5y Max Grade 4",[1],35
same,"Anemia: No. of Patients Experiencing the AE, 5y Max Grade 1",[1],14
same,"Anemia: No. of Patients Experiencing the AE, 5y Max Grade 2",[1],48
same,"Anemia: No. of Patients Experiencing the AE, 5y Max Grade 3",[1],23
same,"Anemia: No. of Patients Experiencing the AE, 5y Max Grade 4",[1],5
same,"Anorexia: No. of Patients Experiencing the AE, 5y Max Grade 1",[1],11
same,"Anorexia: No. of Patients Experiencing the AE, 5y Max Grade 2",[1],3
same,"Anorexia: No. of Patients Experiencing the AE, 5y Max Grade 3",[1],1
same,"Anorexia: No. of Patients Experiencing the AE, 5y Max Grade 4",[1],0
same,"Constipation: No. of Patients Experiencing the AE, 5y Max Grade 1",[1],6
same,"Constipation: No. of Patients Experiencing the AE, 5y Max Grade 2",[1],2
same,"Constipation: No. of Patients Experiencing the AE, 5y Max Grade 3",[1],1
same,"Constipation: No. of Patients Experiencing the AE, 5y Max Grade 4",[1],0
same,"Diarrhea: No. of Patients Experiencing the AE, 5y Max Grade 1",[1],43
same,"Diarrhea: No. of Patients Experiencing the AE, 5y Max Grade 2",[1],21
same,"Diarrhea: No. of Patients Experiencing the AE, 5y Max Grade 3",[1],10
same,"Diarrhea: No. of Patients Experiencing the AE, 5y Max Grade 4",[1],3
same,"Dyspepsia: No. of Patients Experiencing the AE, 5y Max Grade 1",[1],6
same,"Dyspepsia: No. of Patients Experiencing the AE, 5y Max Grade 2",[1],1
same,"Dyspepsia: No. of Patients Experiencing the AE, 5y Max Grade 3",[1],0
same,"Dyspepsia: No. of Patients Experiencing the AE, 5y Max Grade 4",[1],0
same,"Fatigue: No. of Patients Experiencing the AE, 5y Max Grade 1",[1],23
same,"Fatigue: No. of Patients Experiencing the AE, 5y Max Grade 2",[1],8
same,"Fatigue: No. of Patients Experiencing the AE, 5y Max Grade 3",[1],2
same,"Fatigue: No. of Patients Experiencing the AE, 5y Max Grade 4",[1],0
same,"Fever: No. of Patients Experiencing the AE, 5y Max Grade 1",[1],4
same,"Fever: No. of Patients Experiencing the AE, 5y Max Grade 2",[1],7
same,"Fever: No. of Patients Experiencing the AE, 5y Max Grade 3",[1],0
same,"Fever: No. of Patients Experiencing the AE, 5y Max Grade 4",[1],0
same,"Granulocytopenia: No. of Patients Experiencing the AE, 5y Max Grade 1",[1],16
same,"Granulocytopenia: No. of Patients Experiencing the AE, 5y Max Grade 2",[1],17
same,"Granulocytopenia: No. of Patients Experiencing the AE, 5y Max Grade 3",[1],3
same,"Granulocytopenia: No. of Patients Experiencing the AE, 5y Max Grade 4",[1],5
same,"Headache: No. of Patients Experiencing the AE, 5y Max Grade 1",[1],4
same,"Headache: No. of Patients Experiencing the AE, 5y Max Grade 2",[1],3
same,"Headache: No. of Patients Experiencing the AE, 5y Max Grade 3",[1],0
same,"Headache: No. of Patients Experiencing the AE, 5y Max Grade 4",[1],0
same,"Infection: No. of Patients Experiencing the AE, 5y Max Grade 1",[1],4
same,"Infection: No. of Patients Experiencing the AE, 5y Max Grade 2",[1],3
same,"Infection: No. of Patients Experiencing the AE, 5y Max Grade 3",[1],0
same,"Infection: No. of Patients Experiencing the AE, 5y Max Grade 4",[1],0
same,"Leukopenia: No. of Patients Experiencing the AE, 5y Max Grade 1",[1],26
same,"Leukopenia: No. of Patients Experiencing the AE, 5y Max Grade 2",[1],31
same,"Leukopenia: No. of Patients Experiencing the AE, 5y Max Grade 3",[1],10
same,"Leukopenia: No. of Patients Experiencing the AE, 5y Max Grade 4",[1],2
same,"Mucositis: No. of Patients Experiencing the AE, 5y Max Grade 1",[1],23
same,"Mucositis: No. of Patients Experiencing the AE, 5y Max Grade 2",[1],15
same,"Mucositis: No. of Patients Experiencing the AE, 5y Max Grade 3",[1],11
same,"Mucositis: No. of Patients Experiencing the AE, 5y Max Grade 4",[1],3
same,"Nausea: No. of Patients Experiencing the AE, 5y Max Grade 1",[1],59
same,"Nausea: No. of Patients Experiencing the AE, 5y Max Grade 2",[1],19
same,"Nausea: No. of Patients Experiencing the AE, 5y Max Grade 3",[1],12
same,"Nausea: No. of Patients Experiencing the AE, 5y Max Grade 4",[1],1
same,"Pain Inject Site: No. of Patients Experiencing the AE, 5y Max Grade 1",[1],24
same,"Pain Inject Site: No. of Patients Experiencing the AE, 5y Max Grade 2",[1],0
same,"Pain Inject Site: No. of Patients Experiencing the AE, 5y Max Grade 3",[1],0
same,"Pain Inject Site: No. of Patients Experiencing the AE, 5y Max Grade 4",[1],0
same,"Pain, Abdominal: No. of Patients Experiencing the AE, 5y Max Grade 1",[1],4
same,"Pain, Abdominal: No. of Patients Experiencing the AE, 5y Max Grade 2",[1],3
same,"Pain, Abdominal: No. of Patients Experiencing the AE, 5y Max Grade 3",[1],1
same,"Pain, Abdominal: No. of Patients Experiencing the AE, 5y Max Grade 4",[1],0
same,"Rash: No. of Patients Experiencing the AE, 5y Max Grade 1",[1],26
same,"Rash: No. of Patients Experiencing the AE, 5y Max Grade 2",[1],15
same,"Rash: No. of Patients Experiencing the AE, 5y Max Grade 3",[1],9
same,"Rash: No. of Patients Experiencing the AE, 5y Max Grade 4",[1],3
same,"Somnolence: No. of Patients Experiencing the AE, 5y Max Grade 1",[1],7
same,"Somnolence: No. of Patients Experiencing the AE, 5y Max Grade 2",[1],2
same,"Somnolence: No. of Patients Experiencing the AE, 5y Max Grade 3",[1],0
same,"Somnolence: No. of Patients Experiencing the AE, 5y Max Grade 4",[1],0
same,"Stomatitis: No. of Patients Experiencing the AE, 5y Max Grade 1",[1],32
same,"Stomatitis: No. of Patients Experiencing the AE, 5y Max Grade 2",[1],20
same,"Stomatitis: No. of Patients Experiencing the AE, 5y Max Grade 3",[1],7
same,"Stomatitis: No. of Patients Experiencing the AE, 5y Max Grade 4",[1],1
same,"Thrombocytopenia: No. of Patients Experiencing the AE, 5y Max Grade 1",[1],26
same,"Thrombocytopenia: No. of Patients Experiencing the AE, 5y Max Grade 2",[1],31
same,"Thrombocytopenia: No. of Patients Experiencing the AE, 5y Max Grade 3",[1],16
same,"Thrombocytopenia: No. of Patients Experiencing the AE, 5y Max Grade 4",[1],21
same,"Vomit: No. of Patients Experiencing the AE, 5y Max Grade 1",[1],32
same,"Vomit: No. of Patients Experiencing the AE, 5y Max Grade 2",[1],24
same,"Vomit: No. of Patients Experiencing the AE, 5y Max Grade 3",[1],12
same,"Vomit: No. of Patients Experiencing the AE, 5y Max Grade 4",[1],5
same,toxic effects,[2],"weight loss, anemia, and thrombocytopenia"
same,DHO plasma level threshold achieved,"DHODH [3]; Example 9, first patient with AML","1,600 ng/mL"
same,time remained above the DHO threshold,DHODH [3]; [8],84 h
same,time to achieve the DHO plasma level threshold,DHODH [3]; [8],less than 24 hours
same,DHO plasma level threshold achieved,"DHODH [3]; Example 10, second patient with AML","2,900 ng/mL"
same,time remained above the DHO threshold,DHODH [3]; [9],84 h
same,time to achieve the DHO plasma level threshold,DHODH [3]; [9],< 24 h
same,DHO plasma level threshold achieved,"DHODH [3]; Example 11, patient with AML",133 ng/mL
same,time remained above the DHO threshold,DHODH [3]; [10],84 h
same,time to achieve the DHO plasma level threshold,DHODH [3]; [10],less than 2 hours
same,concentration of DHO remaining in the plasma,DHODH [4],about 100 ng/mL
same,clinical response,"[5]; Example 9, first patient, […], improvement of extramedullary hematopoiesis, shift to more differentiation in peripheral blasts",positive response
same,clinical response,"[5]; Example 10, second patient, lowering of peripheral blasts, increase in absolute neutrophil count, greater differentiation of peripheral blasts",positive response
same,clinical response,"[5]; Example 11, indicated by a trend towards differentiation of peripheral blasts",positive response
same,effect of the combination on individual drug pharmacokinetic parameters,[6],without significant modifications of individual drug pharmacokinetic parameters
same,effect on leukemia-initiating cell activity,[7],decreases leukemia-initiating cell activity
Cc1c(-c2ccc(-c3ccccc3F)cc2)nc2ccc(F)cc2c1C(=O)O [Brequinar sodium],tumour response observed,solid malignancies,One mixed response
